Data on 1 molecule can be found in patent US7432397B2, “Imaging compounds” (Hammersmith Imanet Ltd., priority 2002, dated 2008).

The series is described as follows: Metabolite analysis of plasma and brain tissue (SPE/HPLC). The format is in vivo, rat. To be noted: for parent compound as share of the radioactivity in brain: rat brain; for percentage of radioactivity associated with parent: rat plasma. How it is done: Sixteen adult male Sprague-Dawley rats (body weight 250-320 g: mean±SD=288±25 g) were used in 5 separate experiments. Each rat was injected with ˜13 MBq Compound 1, at a specific activity of […], via a previously catheterised tail vein. The associated stable compound was 0.5±0.2 nmol/kg. Discrete samples of arterial blood were collected from 9 of the rats via a previously catheterised tail artery.
Plasma samples were injected directly onto a solid phase extraction (SPE) column (C18), with di-ammonium hydrogen phosphate (0.1 M) mobile phase, and the retained radioactivity subsequently injected onto a reverse phase HPLC column (300×7.8 mm i.d., p-Bondapak C18) with a mobile phase of methanol:0.1 M ammonium formate, […]. The eluates were monitored for radioactivity and absorbance at 254 nm. Brain tissues were assayed using the same methodology, excepting that the samples were homogenised and de-proteinated prior to injection onto the HPLC column.

As to `CSc1cccc(N([11CH3])C(=N)Nc2cc(SC)ccc2Cl)c1` [Compound 1, (N-(2-chloro-5-(methylthio)phenyl)-N′-(3-methylthio)phenyl)-N′-[N-methyl-^11C]-methylguanidine], the “parent compound as share of the radioactivity in brain” value is, setting by setting: (20 minutes after i.v. injection) “approximately 95%”; (70 minutes after i.v. injection) around 90%. The “percentage of radioactivity associated with parent” value is recorded as around 50% (10 min after i.v. injection) and around 5% (90 min after i.v. injection). For the same molecule, the “metabolism and clearance from the plasma” value (rat, i.v.) is “rapid metabolism and clearance”.
